According to PMC11111408, “Concurrent inhibition of oncogenic and wild-type RAS-GTP for cancer therapy” (Nature, 2024):
Values joined by “and” are separate entries in the source; they are usually repeats but may differ in a detail not shown here. Equal values may be shown once.

Tests used:
[1] = target: T1, MRAS and other RAS family small GTPase proteins (Homo sapiens, UniProt O14807, Q71R); experiment: Cellular BRET between CYPA and small GTPases (RIT1, MRAS, RRAS, RRAS2, Rheb); assay type: cell-based; details: MRAS Q71R, single replicates
T1 construct: expressed in transfected cells; host or cells: U2OS PPIA-KO
T1 sequence (O14807 1-208 Q71R): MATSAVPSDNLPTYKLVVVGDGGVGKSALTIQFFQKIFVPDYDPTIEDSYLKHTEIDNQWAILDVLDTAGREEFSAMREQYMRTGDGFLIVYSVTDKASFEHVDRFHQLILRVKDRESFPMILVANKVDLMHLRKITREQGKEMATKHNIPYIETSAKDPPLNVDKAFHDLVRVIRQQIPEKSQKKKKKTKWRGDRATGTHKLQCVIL

[2] = target: T2, MRAS and other RAS family small GTPase proteins (Homo sapiens, UniProt Q92963); experiment: as above; assay type: cell-based; details: RIT1, single replicates
T2 construct: expressed in transfected cells; host or cells: U2OS PPIA-KO
T2 sequence (Q92963 whole entry): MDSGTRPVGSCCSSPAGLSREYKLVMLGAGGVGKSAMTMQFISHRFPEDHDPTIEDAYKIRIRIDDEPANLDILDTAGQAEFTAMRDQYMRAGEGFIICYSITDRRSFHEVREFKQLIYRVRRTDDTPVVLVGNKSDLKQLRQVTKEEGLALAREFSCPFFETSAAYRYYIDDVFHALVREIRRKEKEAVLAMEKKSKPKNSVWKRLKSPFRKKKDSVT

[3] = test system: NCI-H358 cells (CYPA-high, CYPA-low); experiment: Proliferation (CTG) of NCI-H358 cells with low or high CYPA; assay type: cell-based, human
Protocol: Data points show biological duplicates normalized to vehicle control. […] Data points show biological duplicates normalized to vehicle control from 1 of 2–26 independent experiments. Source Data
Alternatively, cells were seeded in round-bottom ultra-low attachment 96-well plates, centrifuged at 1,000 rpm for 10 min to pellet the cells, and incubated overnight or up to 72 h to allow for 3D spheroid formation. […] Cell viability was determined by CellTiter-Glo 2.0 reagent (2D CTG) (Promega, G9243) or 3D CellTiter-Glo reagent (3D CTG) (Promega, G9683) according to the manufacturer’s protocols. Luminescence was detected using a SpectraMax M5 Plate Reader (Molecular Devices) of Perkin Elmer Enspire. Luminescence signal was normalized to vehicle-treated wells (normalized signal (%) = (luminescence (treated)/mean luminescence (vehicle)) × 100%). […] Data were plotted as log [inhibitor (M)], and a four-parameter sigmoidal concentration response model was fitted to the data to calculate EC50. […] Pa16C MEK1 mutant cells were evaluated by live-cell counting using Calcein AM and a SpectraMax i3X multi-mode detection platform (Molecular Devices). Growth percentages were calculated by normalizing the treated cell counts to their respective untreated cell counts.

In the case of `CCn1c(-c2cc(N3CCN(C4CC4)CC3)cnc2[C@H](C)OC)c2c3cc(ccc31)-c1csc(n1)C[C@H](NC(=O)[C@H]1[C@@H]3COC[C@@H]31)C(=O)N1CCC[C@H](N1)C(=O)OCC(C)(C)C2` [RMC-7977], the “Cellular milliBRET signal between CYPA and small GTPase protein” value ([1]; RMC-7977 123.457 nM) is reported as 7.175 milliBRET and 7.5859 milliBRET and 7.924 milliBRET and 8.745 milliBRET and 8.3065 milliBRET and 8.689 milliBRET, the “Cellular milliBRET signal between CYPA and small GTPase protein” value ([1]; RMC-7977 370.370 nM) is reported as 10.161 milliBRET and 10.397 milliBRET and 10.5343 milliBRET and 10.3086 milliBRET and 10.5443 milliBRET and 10.7709 milliBRET and the “Cellular milliBRET signal between CYPA and small GTPase protein” value ([1]; RMC-7977 1111.111 nM) is reported as 10.7121 milliBRET and 10.5516 milliBRET and 12.3365 milliBRET and 10.0544 milliBRET and 11.7366 milliBRET and 10.787 milliBRET. For the same molecule, the “Cellular milliBRET signal between CYPA and small GTPase protein” value ([2]; RMC-7977 1.524 nM) was -0.09879 milliBRET and 0.3095 milliBRET and 0.2348 milliBRET and 0.5374 milliBRET and 0.06248 milliBRET and 1.089 milliBRET, the “Cellular milliBRET signal between CYPA and small GTPase protein” value ([2]; RMC-7977 4.572 nM) was 1.317 milliBRET and 0.9916 milliBRET and 1.087 milliBRET and 0.9533 milliBRET and 1.62 milliBRET and 0.6301 milliBRET and the “Cellular milliBRET signal between CYPA and small GTPase protein” value ([2]; RMC-7977 13.717 nM) was 2.2977 milliBRET and 1.206 milliBRET and 2.0899 milliBRET and 1.6222 milliBRET and 2.532 milliBRET and 1.262 milliBRET. For the same molecule, the “Cellular milliBRET signal between CYPA and small GTPase protein” value ([2]; RMC-7977 41.152 nM) was 3.198 milliBRET and 4.946 milliBRET and 3.114 milliBRET and 5.017 milliBRET and 3.557 milliBRET and 4.376 milliBRET, the “Cellular milliBRET signal between CYPA and small GTPase protein” value ([2]; RMC-7977 123.457 nM) was 3.95 milliBRET and 6.444 milliBRET and 3.939 milliBRET and 6.521 milliBRET and 4.166 milliBRET and 6.383 milliBRET and the “Cellular milliBRET signal between CYPA and small GTPase protein” value ([2]; RMC-7977 370.370 nM) was 5.287 milliBRET and 9.701 milliBRET and 5.757 milliBRET and 9.124 milliBRET and 5.435 milliBRET and 8.897 milliBRET. For the same molecule, the “Cellular milliBRET signal between CYPA and small GTPase protein” value ([2]; RMC-7977 1111.111 nM) was 5.773 milliBRET and 8.825 milliBRET and 5.603 milliBRET and 8.649 milliBRET and 4.274 milliBRET and 8.593 milliBRET, the “sensitivity of CYPA-high versus CYPA-low cells, inhibition of cell proliferation” value ([3]; NCI-H358, doxycycline-inducible CYPA, 120 h) was “eightfold” and the “Proliferation, H358 CypA high (+ 0.1 µg/ml dox)” value ([3]; RMC-7977 0.0152 nM) was 114.566 and 114.478 and 102.697 and 95.6358. For the same molecule, the “Proliferation, H358 CypA high (- dox)” value ([3]; RMC-7977 0.0152 nM) was 114.881 and 112.875 and 101.544 and 96.9285, the “Proliferation, H358 CypA low (+ 0.1 µg/ml dox)” value ([3]; RMC-7977 0.0152 nM) was 109.975 and 111.873 and 103.465 and 96.8877 and the “Proliferation, H358 CypA low (- dox)” value ([3]; RMC-7977 0.0152 nM) was 131.295 and 170.353 and 103.153 and 109.53. For the same molecule, the “Proliferation, H358 CypA high (+ 0.1 µg/ml dox)” value ([3]; RMC-7977 0.0457 nM) was 102.073 and 87.0456, the “Proliferation, H358 CypA high (- dox)” value ([3]; RMC-7977 0.0457 nM) was 94.1146 and 92.3438 and the “Proliferation, H358 CypA low (+ 0.1 µg/ml dox)” value ([3]; RMC-7977 0.0457 nM) was 104.393 and 103.775. The “Proliferation, H358 CypA low (- dox)” value ([3]; RMC-7977 0.0457 nM) was 101.295 and 103.944, the “Proliferation, H358 CypA high (+ 0.1 µg/ml dox)” value ([3]; RMC-7977 0.41 nM) was 40.4066 and 38.4296 and the “Proliferation, H358 CypA high (- dox)” value ([3]; RMC-7977 0.41 nM) was 99.8914 and 99.4838. The “Proliferation, H358 CypA low (+ 0.1 µg/ml dox)” value ([3]; RMC-7977 0.41 nM) was 94.3293 and 90.7108, the “Proliferation, H358 CypA low (- dox)” value ([3]; RMC-7977 0.41 nM) was 110.992 and 108.667 and the “Proliferation, H358 CypA high (+ 0.1 µg/ml dox)” value ([3]; RMC-7977 3.70 nM) was 4.175 and 3.964. The “Proliferation, H358 CypA high (- dox)” value ([3]; RMC-7977 3.70 nM) was 92.1373 and 96.6037, the “Proliferation, H358 CypA low (+ 0.1 µg/ml dox)” value ([3]; RMC-7977 3.70 nM) was 44.8323 and 42.163 and the “Proliferation, H358 CypA low (- dox)” value ([3]; RMC-7977 3.70 nM) was 108.382 and 108.201. The “Proliferation, H358 CypA high (+ 0.1 µg/ml dox)” value ([3]; RMC-7977 11.11 nM) was 1.059 and 0.9033, the “Proliferation, H358 CypA high (- dox)” value ([3]; RMC-7977 11.11 nM) was 92.3418 and 100.036 and the “Proliferation, H358 CypA low (+ 0.1 µg/ml dox)” value ([3]; RMC-7977 11.11 nM) was 22.8241 and 21.8177. The “Proliferation, H358 CypA low (- dox)” value ([3]; RMC-7977 11.11 nM) was 112.468 and 108.323, the “Proliferation, H358 CypA high (+ 0.1 µg/ml dox)” value ([3]; RMC-7977 33.33 nM) was 0.7359 and 0.8327 and the “Proliferation, H358 CypA high (- dox)” value ([3]; RMC-7977 33.33 nM) was 92.8182 and 94.1066. The “Proliferation, H358 CypA low (+ 0.1 µg/ml dox)” value ([3]; RMC-7977 33.33 nM) was 11.066 and 10.8911, the “Proliferation, H358 CypA low (- dox)” value ([3]; RMC-7977 33.33 nM) was 104.142 and 111.18 and the “Proliferation, H358 CypA high (+ 0.1 µg/ml dox)” value ([3]; RMC-7977 100.00 nM) was 0.6202 and 0.4579. For the same molecule, the “Proliferation, H358 CypA high (- dox)” value ([3]; RMC-7977 100.00 nM) was 94.8777 and 89.8025, the “Proliferation, H358 CypA low (+ 0.1 µg/ml dox)” value ([3]; RMC-7977 100.00 nM) was 7.141 and 7.102 and the “Proliferation, H358 CypA low (- dox)” value ([3]; RMC-7977 100.00 nM) was 104.79 and 108.679. The “Proliferation, H358 CypA high (+ 0.1 µg/ml dox)” value ([3]; RMC-7977 300.00 nM) was 0.5256 and 0.2817, the “Proliferation, H358 CypA high (- dox)” value ([3]; RMC-7977 300.00 nM) was 83.7998 and 85.0113 and the “Proliferation, H358 CypA low (+ 0.1 µg/ml dox)” value ([3]; RMC-7977 300.00 nM) was 5.455 and 5.338. The “Proliferation, H358 CypA low (- dox)” value ([3]; RMC-7977 300.00 nM) was 79.1522 and 100.975.
